Laboratory results as given in patent US10221179B2, “Substituted pyrazoloquinazolinones and pyrroloquinazolinones as allosteric modulators of group II metabotropic glutamate receptors” (DOMAIN THERAPEUTICS, priority 2014, dated 2019).
Counter-ions that a name gives are not always drawn.

Target: T1, human mGluR2 (hmGluR2) (Homo sapiens, UniProt Q14416)
T1 construct: expressed in transfected cells; host or cells: HEK-293 cells, transient co-transfection by electroporation
Experiment: Ca++ functional assay, human mGluR2 transiently over-expressed in HEK-293 cells (agonist and negative allosteric modulator modes)
Type: cell-based
Settings: glutamate at EC80, intracellular calcium (Fluo4AM), read-out: hmGluR2 negative allosteric modulator activity IC50
Procedure: Example 127: Human mGluR2 and mGluR3 Evaluation Using Ca^++ Functional Assay
Examples of the present invention were tested successively for their agonist and negative allosteric modulator activities on human mGluR2 (hmGluR2) and mGluR3 (hmGluR3) transiently over-expressed in HEK-293 cells.
Cell Culture and Transfection
HEK-293 cells are maintained in Modified Eagle's Medium supplemented with 10% Foetal Calf Serum, 1% Penicillin/Streptomycin and 1% non-essential amino acids at 37° C./5% CO2.
Cells are co-transfected by electroporation with four DNA plasmids encoding hmGluR2 or hmGluR3, a chimeric G protein allowing redirection of the activation signal to intracellular calcium pathway (Brabet I et al., Neuropharmacology 37(8), 1043-51, 1998), and two glutamate transporters minimizing receptor desensitization by endogenous glutamate. After transfection, cells are cultured for 24 h at 37° C./5% CO2.
Calcium Assay IC50 Determination
Receptor activity is detected by changes in intracellular calcium measured using the fluorescent Ca^2+ sensitive dye, Fluo4AM (Molecular Probes).
On the day of the assay, culture medium is aspirated and replaced during 3 hours by medium without serum supplemented with 1% Glutamax, 1% Penicillin/Streptomycin and 1% non-essential amino acids. Then, cells are washed with freshly prepared buffer B (HBSS 1×(PAA), Hepes 20 mM, MgSO4-7H2O 1 mM, Na2CO3 3.3 mM, CaCl2-2H2O 1.3 mM, 0.1% BSA, Probenecid 2.5 mM) and loaded at 37° C. in 5% CO2 for 1.5 hours with buffer B containing 1 μM Fluo4AM, 0.1 mg/mL Pluronic Acid, 7 μg/mL Glutamate Pyruvate Transaminase and 2 mM sodium pyruvate. Afterwards cells are washed twice with buffer B. Then cells are detached using StemPro Accutase (Fischer Scientific), resuspended in buffer B and seeded in 384 well plate at a density of 30,000 cells per well. Addition of compounds and intracellular Ca^2+ measurements (excitation 485 nm, emission 525 nm) are performed by the fluorescence microplate reader FLIPRTetra (Molecular Devices).
Agonist and negative allosteric modulator activities of compounds are consecutively evaluated on the same cell plate. […] Then, cells are stimulated by an EC80 glutamate concentration and fluorescence is recorded for additional 3 minutes. EC80 glutamate concentration is the concentration giving 80% of the maximal glutamate response. Agonist or negative allosteric modulator activity(ies) are evaluated in comparison to basal signals evoked by buffer B or EC80 glutamate alone, respectively.
For IC50 determination, a dose-response test is performed using 20 concentrations (ranging over 6 logs) of each compound. Dose-response curves are fitted using the sigmoidal dose-response (variable slope) analysis in GraphPad Prism program (Graph Pad Inc) and IC50 of negative allosteric modulator activity is calculated. Dose-response experiments are performed in duplicate, two times independently.

T1 sequence (Q14416 19-872): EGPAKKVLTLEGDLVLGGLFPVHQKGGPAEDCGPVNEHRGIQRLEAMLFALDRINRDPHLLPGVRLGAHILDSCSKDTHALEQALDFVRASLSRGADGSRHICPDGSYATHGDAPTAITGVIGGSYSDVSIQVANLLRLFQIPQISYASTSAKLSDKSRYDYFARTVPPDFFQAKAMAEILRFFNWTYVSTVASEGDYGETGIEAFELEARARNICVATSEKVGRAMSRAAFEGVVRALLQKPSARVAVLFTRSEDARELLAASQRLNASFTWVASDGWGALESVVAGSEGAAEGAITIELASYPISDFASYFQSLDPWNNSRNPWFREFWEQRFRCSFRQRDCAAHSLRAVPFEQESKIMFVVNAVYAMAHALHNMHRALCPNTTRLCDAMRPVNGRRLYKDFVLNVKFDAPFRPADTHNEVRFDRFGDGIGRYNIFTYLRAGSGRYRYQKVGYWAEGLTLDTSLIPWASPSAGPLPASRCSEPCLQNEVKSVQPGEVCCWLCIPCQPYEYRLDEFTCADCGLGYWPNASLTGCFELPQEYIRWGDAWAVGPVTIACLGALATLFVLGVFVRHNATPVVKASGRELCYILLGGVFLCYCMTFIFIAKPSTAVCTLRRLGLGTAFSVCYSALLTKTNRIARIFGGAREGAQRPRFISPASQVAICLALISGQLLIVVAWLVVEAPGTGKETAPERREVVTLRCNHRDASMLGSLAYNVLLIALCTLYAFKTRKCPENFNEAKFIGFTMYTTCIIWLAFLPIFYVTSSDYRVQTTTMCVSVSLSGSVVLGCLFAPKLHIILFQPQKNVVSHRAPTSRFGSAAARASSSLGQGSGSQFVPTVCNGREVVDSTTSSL

| IC50 [nM] | Compound |
| --- | --- |
| < 1000 | COc1ccc2c(c1)c(=O)n(C)c1cc(-c3ccnc(C4CC4)c3)nn21 [Example 100, 2-(2-Cyclopropyl-pyridin-4-yl)-7-methoxy-4-methyl-4H-pyrazolo[1,5-a]quinazolin-5-one] |
| < 1000 | Cn1c(=O)c2cc(Cl)ccc2n2nc(-c3ccnc(C(F)(F)F)c3)cc12 [Example 35] |
| < 1000 | Cn1c(=O)c2ccccc2n2nc(-c3ccncc3Cl)cc12 [Example 108, 2-(3-Chloro-pyridin-4-yl)-4-methyl-4H-pyrazolo[1,5-a]quinazolin-5-one] |
| < 1000 | C=C(C)c1cc(-c2cc3n(C)c(=O)c4ccccc4n3n2)ccn1 [Example 10, 2-(2-Isopropenyl-pyridin-4-yl)-4-methyl-4H-pyrazolo[1,5-a]quinazolin-5-one] |
| < 1000 | Cc1cc(-c2cc3n(C)c(=O)c4ccccc4n3n2)cc(Cl)n1 [Example 105, 2-(2-Chloro-6-methyl-pyridin-4-yl)-4-methyl-4H-pyrazolo[1,5-a]quinazolin-5-one] |

Tested on: not given
Experiment: not given
Settings: not given

| melting point [°C] | Compound |
| --- | --- |
| > 250 | CC(=O)Nc1ccc2c(c1)c(=O)n(C)c1cc(-c3ccnc(C(F)(F)F)c3)nn21 [Example 42, N-[4-Methyl-5-oxo-2-(2-trifluoromethyl-pyridin-4-yl)-4,5-dihydro-pyrazolo[1,5-a]quinazolin-7-yl]-acetamide] |
| > 250 | Cn1c(=O)c2ccc(C#N)cc2n2nc(-c3ccnc(C(F)(F)F)c3)cc12 [Example 75, 4-Methyl-5-oxo-2-(2-trifluoromethyl-pyridin-4-yl)-4,5-dihydro-pyrazolo[1,5-a]quinazoline-8-carbonitrile] |
| > 250 | Cn1c(=O)c2ccc(N3CCCC(O)C3)cc2n2nc(-c3ccnc(C(F)(F)F)c3)cc12 (stereo not shown) [Example 124, 8-(3-Hydroxy-piperidin-1-yl)-4-methyl-2-(2-trifluoromethyl-pyridin-4-yl)-4H-pyrazolo[1,5-a]quinazolin-5-one] |
| > 250 | COc1cccc2c(=O)n(C)c3cc(-c4ccnc(C(F)(F)F)c4)nn3c12 [Example 86, 9-Methoxy-4-methyl-2-(2-trifluoromethyl-pyridin-4-yl)-4H-pyrazolo[1,5-a]quinazolin-5-one] |
| 128 to 134 | Cn1c(=O)c2ccc(OCCO)cc2n2nc(-c3ccnc(C(F)(F)F)c3)cc12 [Example 83, 8-(2-Hydroxy-ethoxy)-4-methyl-2-(2-trifluoromethyl-pyridin-4-yl)-4H-pyrazolo[1,5-a]quinazolin-5-one] |
| 195 to 199 | Cn1cc(-c2cc3n(C)c(=O)c4ccccc4n3n2)cn1 [Example 103, 4-Methyl-2-(1-methyl-1H-pyrazol-4-yl)-4H-pyrazolo[1,5-a]quinazolin-5-one] |
| > 250 | Cn1c(=O)c2cc(F)c(N3CCC34CCC(CO)CC4)cc2n2nc(-c3ccnc(C(F)(F)F)c3)cc12 (stereo not shown) [Example 123, 7-Fluoro-8-(7-hydroxymethyl-1-aza-spiro[3.5]non-1-yl)-4-methyl-2-(2-trifluoromethyl-pyridin-4-yl)-4H-pyrazolo[1,5-a]quinazolin-5-one] |
| 230 to 240 | COc1ccc2c(c1)c(=O)n(C)c1cc(-c3ccnc(C4CC4)c3)nn21 (as salt: HCl) [Example 100, 2-(2-Cyclopropyl-pyridin-4-yl)-7-methoxy-4-methyl-4H-pyrazolo[1,5-a]quinazolin-5-one] |
| > 250 | COC1CCN(c2ccc3c(=O)n(C)c4cc(-c5ccnc(C(F)(F)F)c5)nn4c3c2)CC1 [Example 62, 8-(4-Methoxy-piperidin-1-yl)-4-methyl-2-(2-trifluoromethyl-pyridin-4-yl)-4H-pyrazolo[1,5-a]quinazolin-5-one] |
| 240 to 245 | Cn1c(=O)c2cc(OC(F)(F)F)ccc2n2nc(-c3ccnc(C(F)(F)F)c3)cc12 [Example 52, 4-Methyl-7-trifluoromethoxy-2-(2-trifluoromethyl-pyridin-4-yl)-4H-pyrazolo[1,5-a]quinazolin-5-one] |
| > 250 | Cn1c(=O)c2ccc(N3CCCC3)cc2n2nc(-c3ccnc(C(F)(F)F)c3)cc12 [Example 60, 4-Methyl-8-pyrrolidin-1-yl-2-(2-trifluoromethyl-pyridin-4-yl)-4H-pyrazolo[1,5-a]quinazolin-5-one] |
| > 250 | Cl.Cn1c(=O)c2cc(OCCN3CCOCC3)ccc2n2nc(-c3ccnc(C(F)(F)F)c3)cc12 |
| 182 to 189 | COCCOc1ccc2c(c1)c(=O)n(C)c1cc(-c3ccnc(C(F)(F)F)c3)nn21 [Example 50, 7-(2-Methoxy-ethoxy)-4-methyl-2-(2-trifluoromethyl-pyridin-4-yl)-4H-pyrazolo[1,5-a]quinazolin-5-one] |
| 205 to 210 | Cn1c(=O)c2cc(C(F)(F)F)ccc2n2nc(-c3ccnc(C(F)(F)F)c3)cc12 [Example 37] |
| > 250 | Cn1c(=O)c2ccc(N3CCC(C)(O)CC3)cc2n2nc(-c3ccnc(C(F)(F)F)c3)cc12 [Example 71, 8-(4-Hydroxy-4-methyl-piperidin-1-yl)-4-methyl-2-(2-trifluoromethyl-pyridin-4-yl)-4H-pyrazolo[1,5-a]quinazolin-5-one] |
| > 250 | Cn1c(=O)c2ccc(N3CC(CO)C3)cc2n2nc(-c3ccnc(C(F)(F)F)c3)cc12 [Example 69, 8-(3-Hydroxymethyl-azetidin-1-yl)-4-methyl-2-(2-trifluoromethyl-pyridin-4-yl)-4H-pyrazolo[1,5-a]quinazolin-5-one] |
| 165 to 174 | COCCn1c(=O)c2ccccc2n2nc(-c3ccnc(C(F)(F)F)c3)cc12 [Example 30, 4-(2-Methoxy-ethyl)-2-(2-trifluoromethyl-pyridin-4-yl)-4H-pyrazolo[1,5-a]quinazolin-5-one] |
| > 250 | Cc1cc(-c2cc3n(C)c(=O)c4ccccc4n3n2)cc(C2CC2)n1 (as salt: HCl) [Example 106, 2-(2-Cyclopropyl-6-methyl-pyridin-4-yl)-4-methyl-4H-pyrazolo[1,5-a]quinazolin-5-one] |
| > 250 | Cn1c(=O)c2ccc(C(=O)O)cc2n2nc(-c3ccnc(C(F)(F)F)c3)cc12 [Example 76, 4-Methyl-5-oxo-2-(2-trifluoromethyl-pyridin-4-yl)-4,5-dihydro-pyrazolo[1,5-a]quinazoline-8-carboxylic Acid] |
| 230 to 235 | Cn1c(=O)c2ccc(F)cc2n2nc(-c3ccnc(C4CC4)c3)cc12 [Example 112, 2-(2-Cyclopropyl-pyridin-4-yl)-8-fluoro-4-methyl-4H-pyrazolo[1,5-a]quinazolin-5-one] |
| > 250 | Cc1ccc2c(=O)n(C)c3cc(-c4ccnc(C(F)(F)F)c4)nn3c2c1 [Example 72, 4,8-Dimethyl-2-(2-trifluoromethyl-pyridin-4-yl)-4H-pyrazolo[1,5-a]quinazolin-5-one] |
| > 250 | Cn1c(=O)c2ccccc2n2nc(-c3ccncc3)cc12 (as salt: HCl) [Example 104, 4-Methyl-2-pyridin-4-yl-4H-pyrazolo[1,5-a]quinazolin-5-one] |
| > 250 | Cn1c(=O)c2cc(S(C)(=O)=O)ccc2n2nc(-c3ccnc(C(F)(F)F)c3)cc12 [Example 53, 7-Methanesulfonyl-4-methyl-2-(2-trifluoromethyl-pyridin-4-yl)-4H-pyrazolo[1,5-a]quinazolin-5-one] |
| 245 to 250 | Cn1c(=O)c2cc(N)ccc2n2nc(-c3ccnc(C(F)(F)F)c3)cc12 [Example 43, 7-Amino-4-methyl-2-(2-trifluoromethyl-pyridin-4-yl)-4H-pyrazolo[1,5-a]quinazolin-5-one] |
| 244 to 247 | Cn1c(=O)c2ccccc2n2nc(-c3ccncc3F)cc12 [Example 107, 2-(3-Fluoro-pyridin-4-yl)-4-methyl-4H-pyrazolo[1,5-a]quinazolin-5-one] |
| > 250 | Cn1c(=O)c2ccc(C3CC3)cc2n2nc(-c3ccnc(C(F)(F)F)c3)cc12 [Example 73, 8-Cyclopropyl-4-methyl-2-(2-trifluoromethyl-pyridin-4-yl)-4H-pyrazolo[1,5-a]quinazolin-5-one] |
